According to US20100113550A1, “New Crystal Forms” (BIAL - PORTELA AND CA, S.A., priority 2006, published 2010):
Where two headings read alike, the source gives them in different places.

Key:
Assay type in all cases: physicochemical
[1] = RH stability: storage at controlled relative humidity or drying, checked by XRPD and for deliquescence
[2] = Coulometric Karl Fischer titration for water determination
Procedure: Coulometric Karl Fischer (KF) analysis for water determination was performed using a Mettler Toledo DL39 Karl Fischer titrator. Samples were placed in the KF titration vessel containing approximately Hydranal—Coulomat AD and mixed for 60 seconds to ensure dissolution. The sample was then titrated by means of a generator electrode which produces iodine by electrochemical oxidation: 2I−=>I2+2e. Three replicates were obtained to ensure reproducibility. A NIST-traceable water standard (Hydranal Water Standard 10.0) was analyzed to check the operation of the coulometer. Data were collected and analyzed using LabX Pro Titration v2.10.000.

[3] = RH stability: storage at controlled relative humidity or drying, checked by XRPD and for deliquescence; remark: listed apart in the source
Description: Form A samples were stored at lower relative humidities of approximately 9-11, 23 and 32% RH and analyzed by XRPD and Karl-Fischer titration analysis after four weeks (Tables 30 and 31). The samples appeared to be Form A by XRPD. […] Note that the water content in the samples at 23 and 32% RH was slightly higher compared to the initial batch of Form A.
Form X samples were stored at relative humidities of approximately 43, 75 and 90% RH and analyzed by XRPD and Karl-Fischer titration analysis after five weeks (Tables 34 and 35).

[4] = Approximate solubilities (solvent added until a solution forms); settings: for solubility: read-out: Solubility (approximate)
Description: Approximate solubilities of compound 1, Form A in aqueous mixtures containing high concentrations of organic solvents are given in Table 1. [table]

[5] = Interconversion studies of Forms A and C (slurries, XRPD)
Procedure: A slurry of compound 1, Form A, was prepared in a given solvent and loaded on an orbit shaker at either ambient or elevated temperature for at least 1 day. The liquid phase of the slurry was drawn off with a pipette and filtered through a 0.2-μm filter. A slurry containing compound 1 forms A and C was prepared using the filtered liquid phase from the Form A slurry. The mixture was then loaded on an orbit shaker in a sealed vial at either ambient or elevated temperature for 1 or 7 days. The solids were isolated by vacuum filtration or by drawing the liquid phase off with a pipette and allowing the solids to air dry at ambient conditions prior to analysis. The resulting Forms were characterised by XRPD.

With Cl.NCCc1c[nH]c(=S)n1[C@H]1COc2c(F)cc(F)cc2C1 [Form X, (R)-5-(2-Aminoethyl)-1-(6,8-difluorochroman-3-yl)-1,3-dihydroimidazole-2-thione hydrochloride] the Observations ([1]; 43% RH, 5 weeks (Table 34)) was “looks dry”, the Observations ([1]; 75% RH, 5 weeks (Table 34)) was “looks dry” and the “Change by XRPD on drying” value ([1]; after 6 days and 2 weeks of drying at approximately 70° C.) was “did not change”. The Observations ([1]; ~43% RH, 5 weeks (Table 35)) was “looks dry”, the Observations ([1]; ~43% RH, 7 days) was “looks dry” and the “Weight change” value ([1]; ~43% RH, 7 days) was 1.2 mg. For the same compound, the “Weight change, %” value ([1]; ~43% RH, 7 days) was 3.4%, the Observations ([1]; ~75% RH, 5 weeks (Table 35)) was “looks dry” and the Observations ([1]; ~75% RH, 7 days) was “looks dry”. For the same compound, the “Weight change” value ([1]; ~75% RH, 7 days) was 2.4 mg, the “Weight change, %” value ([1]; ~75% RH, 7 days) was 6.0% and the Observations ([1]; ~90% RH, 5 weeks (Table 35)) was “looks dry”. For the same compound, the “Weight change” value ([1]; ~90% RH, 1 day) was 2.3 mg, the “Weight change, %” value ([1]; ~90% RH, 1 day) was 5.6% and the Observations ([1]; ~90% RH, 7 days) was “looks dry”. For the same compound, the “Weight change” value ([1]; ~90% RH, 7 days) was 0.9 mg, the “Weight change, %” value ([1]; ~90% RH, 7 days) was 2.1% and the “% water” value ([2]; 43% RH, 5 weeks) was 5.52%. For the same compound, the Moles of water ([2]; 43% RH, 5 weeks) was 1.13 mol, the “% water” value ([2]; 75% RH, 5 weeks) was 8.74% and the Moles of water ([2]; 75% RH, 5 weeks) was 1.85 mol. The “% water” value ([2]; 90% RH, 5 weeks) was 6.47%, the Moles of water ([2]; 90% RH, 5 weeks) was 1.34 mol and the Observations ([3]; 90% RH, 5 weeks (Table 34)) was “looks dry”. The “Form conversion at high relative humidity” value ([3]; 90% RH, after 4 days and 5 weeks) was “converted to Form B”.

For Cl.NCCc1c[nH]c(=S)n1[C@H]1COc2c(F)cc(F)cc2C1 [Form A, (R)-5-(2-Aminoethyl)-1-(6,8-difluorochroman-3-yl)-1,3-dihydroimidazole-2-thione hydrochloride], the solubility ([4]; 1,4-dioxane:water 99:1, organic solvent or mixture, 1,4-dioxane:water 99:1) was less than 24 mg/mL, the solubility ([4]; acetone:water 90:10, organic solvent or mixture, acetone:water 90:10 (9:1)) was greater than 23 mg/mL and the “Solubility (approximate)” value ([4]; acetone:water 99:1, hydrochloride) was 1 mg/mL. For the same compound, the solubility ([4]; acetonitrile:water 90:10, organic solvent or mixture, acetonitrile:water 90:10 (9:1)) was greater than 23 mg/mL, the solubility ([4]; acetonitrile:water 95:5, organic solvent or mixture, acetonitrile:water 95:5) was less than 23 mg/mL and the solubility ([4]; ethanol:water 90:10, organic solvent or mixture, ethanol:water 90:10 (9:1)) was greater than 21 mg/mL. The solubility ([4]; ethanol:water 99:1, organic solvent or mixture, ethanol:water 99:1) was less than 25 mg/mL, the “Stability at relative humidity” value ([1]; 31% relative humidity, after two weeks) was “stable” and the “Stability at relative humidity” value ([1]; 43% relative humidity, after five days) was “stable”. For the same compound, the “Form conversion under high laboratory humidity” value ([1]; typically 43% to 90% relative humidity, within 1 day to 2 weeks) was “converts to Form B”, the “% water” value ([2]; ~9-11% RH, 11 days) was 1.70% and the Moles of water ([2]; ~9-11% RH, 11 days) was 0.33 mol. The “% water” value ([2]; ~23% RH, 4 weeks) was 2.96%, the Moles of water ([2]; ~23% RH, 4 weeks) was 0.59 mol and the “% water” value ([2]; ~32% RH, 4 weeks) was 3.24%. The Moles of water ([2]; ~32% RH, 4 weeks) was 0.65 mol, the Observations ([3]; ~23% RH, 4 weeks) was “looks dry” and the Observations ([3]; ~32% RH, 4 weeks) was “looks dry”.

For Cl.NCCc1c[nH]c(=S)n1[C@H]1COc2c(F)cc(F)cc2C1 [Forms A and C, (R)-5-(2-Aminoethyl)-1-(6,8-difluorochroman-3-yl)-1,3-dihydroimidazole-2-thione hydrochloride], the “Form resulting from interconversion slurry” value (“Form resulting” for short) ([5]; 1-day slurries at room temperature, ethanol and acetone:water 99:1) was “mixture of Forms C and B, with Form B as a minor component”, the “Form resulting” value ([5]; acetone:water 99:1, 40° C., 1-day slurry) was “mixture of Forms C and A, with Form A as a minor component” and the “Form resulting” value ([5]; after one week, ambient temperature and 40° C.) was “Form C”. The “Form resulting” value ([5]; ethanol, 40° C., 1-day slurry) was “Form C”.
